The test concerns BDF1 mice, Friend leukemia sc, tumor weight T/C. Nature of the test: NCI In Vivo Anticancer Drug Screen. Data for tumor model Friend Virus Leukemia (Solid) (subcutaneous) in B6D2F1 (BDF1) mice. Conditions: endpoint: mean tumor weight, higher = larger tumour. The protocol:
The antitumor activity of compounds was measured in mice bearing transplantable tumors. Survival or tumor size were measured and the results are expressed as the measurement made in the treated group (T) divided by the measurement made in the vehicle treated control group (C). The tumor model used in this assay is Friend Virus Leukemia (Solid) (subcutaneous) in B6D2F1 (BDF1) mice

Setting [1] is: dose: 3.0 mg/kg/injection, schedule: Q01DX011 (ip), vehicle: carboxymethylcellulose (CMC).
[2] abbreviates: dose: 6.0 mg/kg/injection, schedule: Q01DX011 (ip), vehicle: carboxymethylcellulose (CMC).
Where [3] appears, read: dose: 125.0 mg/kg/injection, schedule: Q01DX011 (ip), vehicle: saline.
The mark [4] stands for this setting: dose: 250.0 mg/kg/injection, schedule: Q01DX011 (ip), vehicle: saline.

Several values for one entry are separate records, joined by “and”; a condition that tells them apart may be missing. Equal values may be shown once. Inconclusive results are not listed.

With `Clc1ccc(C(c2ccccc2Cl)C(Cl)Cl)cc1` (stereo not given), the T/C is 163 % of control (dose: 375.0 mg/kg/injection, schedule: Q01DX011 (sc), vehicle: steriod suspending solution); 210 % of control (dose: 500.0 mg/kg/injection, schedule: Q01DX011 (sc), vehicle: steriod suspending solution); 155 % of control (dose: 750.0 mg/kg/injection, schedule: Q01DX011 (sc), vehicle: steriod suspending solution).

For the compound `O=c1[nH]cnc2n[nH]nc12`, the T/C by setting is: (dose: 62.5 mg/kg/injection, schedule: Q01DX011 (ip), vehicle: carboxymethylcellulose (CMC)) 71 % of control; (dose: 125.0 mg/kg/injection, schedule: Q01DX011 (ip), vehicle: carboxymethylcellulose (CMC)) 55 % of control; (dose: 250.0 mg/kg/injection, schedule: Q01DX011 (ip), vehicle: carboxymethylcellulose (CMC)) 31 % of control and 36 % of control; (dose: 500.0 mg/kg/injection, schedule: Q01DX011 (ip), vehicle: carboxymethylcellulose (CMC)) 11 % of control and 17 % of control.

On to `C1OC1C1CO1` (stereo not given), for which the T/C was 77 % of control (dose: 4.5 mg/kg/injection, schedule: Q01DX011 (ip), vehicle: carboxymethylcellulose (CMC)); 107 % of control and 115 % of control (dose: 9.0 mg/kg/injection, schedule: Q01DX011 (ip), vehicle: carboxymethylcellulose (CMC)); 70 % of control and 83 % of control (dose: 18.0 mg/kg/injection, schedule: Q01DX011 (ip), vehicle: carboxymethylcellulose (CMC)).

Turning to `CCCNC(=NC)c1ccc(NC(=O)c2ccc(C(=O)Nc3ccc(C(=NC)NCCC)cc3)cc2)cc1`, the T/C is 80 % of control under setting [1] and 65 % of control under setting [2].

Take `CN1CCC23c4c5ccc(O)c4OC2C(O)C=CC3C1C5` (stereo not given): the T/C was 116 % of control (dose: 62.0 mg/kg/injection, schedule: Q01DX011 (ip), vehicle: saline); 172 % of control under setting [3]; 118 % of control under setting [4].

With `CC(=O)OCC(=O)[C@@]1(O)CC[C@H]2[C@@H]3CCC4=CC(=O)CC[C@]4(C)[C@H]3C(=O)C[C@@]21C`, the T/C was 59 % of control (dose: 5.62 mg/kg/injection, schedule: Q01DX011 (sc), vehicle: steriod suspending solution); 97 % of control (dose: 8.0 mg/kg/injection, schedule: Q01DX011 (sc), vehicle: steriod suspending solution); 33 % of control (dose: 11.25 mg/kg/injection, schedule: Q01DX011 (sc), vehicle: steriod suspending solution); 69 % of control (dose: 16.0 mg/kg/injection, schedule: Q01DX011 (sc), vehicle: steriod suspending solution); 21 % of control (dose: 22.5 mg/kg/injection, schedule: Q01DX011 (sc), vehicle: steriod suspending solution); 15 % of control and 29 % of control (2×) (dose: 31.0 mg/kg/injection, schedule: Q01DX011 (sc), vehicle: steriod suspending solution). Besides, the T/C (dose: 34.0 mg/kg/injection, schedule: Q01DX011 (sc), vehicle: steriod suspending solution) was 50 % of control; the T/C (dose: 45.0 mg/kg/injection, schedule: Q01DX011 (sc), vehicle: steriod suspending solution) is 13 % of control; the T/C (dose: 62.0 mg/kg/injection, schedule: Q01DX011 (sc), vehicle: steriod suspending solution) is 7 % of control and 9 % of control and 18 % of control; the T/C (dose: 68.0 mg/kg/injection, schedule: Q01DX011 (sc), vehicle: steriod suspending solution) was 28 % of control; the T/C (dose: 125.0 mg/kg/injection, schedule: Q01DX011 (sc), vehicle: steriod suspending solution) is 3 % of control and 15 % of control and 20 % of control; the T/C (dose: 250.0 mg/kg/injection, schedule: Q01DX011 (sc), vehicle: steriod suspending solution) is 3 % of control and 6 % of control and 20 % of control.

For `NNc1nncc2ccccc12`, the T/C (dose: 37.5 mg/kg/injection, schedule: Q01DX011 (ip), vehicle: carboxymethylcellulose (CMC)) is 108 % of control and the T/C (dose: 75.0 mg/kg/injection, schedule: Q01DX011 (ip), vehicle: carboxymethylcellulose (CMC)) is 66 % of control.

With `NNC(=O)c1ccncc1`, the T/C was 80 % of control (dose: 15.0 mg/kg/injection, schedule: Q01DX011 (ip), vehicle: carboxymethylcellulose (CMC)); 75 % of control (dose: 30.0 mg/kg/injection, schedule: Q01DX011 (ip), vehicle: carboxymethylcellulose (CMC)); 55 % of control (dose: 121.0 mg/kg/injection, schedule: Q01DX011 (ip), vehicle: carboxymethylcellulose (CMC)).

Turning to `COC(=S)SCN(CSC(=S)OC)c1ccccc1Cl`, the T/C reads like this: under setting [3], 95 % of control; under setting [4], 107 % of control.

Take `O=C(NO)c1ccncc1`: the T/C is, setting by setting: under setting [4], 79 % of control; (dose: 500.0 mg/kg/injection, schedule: Q01DX011 (ip), vehicle: saline) 78 % of control and 86 % of control; (dose: 750.0 mg/kg/injection, schedule: Q01DX011 (ip), vehicle: saline) 42 % of control and 48 % of control; (dose: 950.0 mg/kg/injection, schedule: Q01DX011 (ip), vehicle: saline) 7 % of control.

For the compound `Cc1nc(N2CC2)nc(N2CC2)c1[N+](=O)[O-]`, the T/C is 70 % of control (dose: 2.0 mg/kg/injection, schedule: Q01DX011 (ip), vehicle: carboxymethylcellulose (CMC)); 39 % of control under setting [1]; 41 % of control (dose: 4.0 mg/kg/injection, schedule: Q01DX011 (ip), vehicle: carboxymethylcellulose (CMC)); 63 % of control and 40 % of control under setting [2].

For `CCOC(=O)NP(=O)(N1CC1)N1CC1`, the T/C was 78 % of control (dose: 2.87 mg/kg/injection, schedule: Q01DX011 (ip), vehicle: carboxymethylcellulose (CMC)); 77 % of control (dose: 4.75 mg/kg/injection, schedule: Q01DX011 (ip), vehicle: carboxymethylcellulose (CMC)); 36 % of control (dose: 9.5 mg/kg/injection, schedule: Q01DX011 (ip), vehicle: carboxymethylcellulose (CMC)); 5 % of control (dose: 19.0 mg/kg/injection, schedule: Q01DX011 (ip), vehicle: carboxymethylcellulose (CMC)).

Turning to `[N-]=[N+]=[N-]`, the T/C runs as follows: (dose: 1.06 mg/kg/injection, schedule: Q01DX011 (ip), vehicle: carboxymethylcellulose (CMC)) 89 % of control; (dose: 2.12 mg/kg/injection, schedule: Q01DX011 (ip), vehicle: carboxymethylcellulose (CMC)) 108 % of control; (dose: 4.25 mg/kg/injection, schedule: Q01DX011 (ip), vehicle: carboxymethylcellulose (CMC)) 114 % of control; (dose: 8.5 mg/kg/injection, schedule: Q01DX011 (ip), vehicle: carboxymethylcellulose (CMC)) 117 % of control.

For the compound `CC/C(=C(/CC)c1ccc(O)cc1)c1ccc(O)cc1`, the T/C by setting is: (dose: 6.5 mg/kg/injection, schedule: Q01DX011 (sc), vehicle: steriod suspending solution) 171 % of control and 244 % of control; (dose: 13.0 mg/kg/injection, schedule: Q01DX011 (sc), vehicle: steriod suspending solution) 169 % of control; (dose: 26.0 mg/kg/injection, schedule: Q01DX011 (sc), vehicle: steriod suspending solution) 119 % of control and 121 % of control; (dose: 52.0 mg/kg/injection, schedule: Q01DX011 (sc), vehicle: steriod suspending solution) 83 % of control.

For `Nc1ncnc2[nH]ncc12`, the T/C by setting is: (dose: 0.9 mg/kg/injection, schedule: Q01DX011 (ip), vehicle: carboxymethylcellulose (CMC)) 108 % of control; (dose: 0.93 mg/kg/injection, schedule: Q01DX011 (ip), vehicle: carboxymethylcellulose (CMC)) 74 % of control; (dose: 1.8 mg/kg/injection, schedule: Q01DX011 (ip), vehicle: carboxymethylcellulose (CMC)) 157 % of control; (dose: 1.87 mg/kg/injection, schedule: Q01DX011 (ip), vehicle: carboxymethylcellulose (CMC)) 90 % of control; (dose: 1.9 mg/kg/injection, schedule: Q01DX011 (ip), vehicle: carboxymethylcellulose (CMC)) 124 % of control; (dose: 3.7 mg/kg/injection, schedule: Q01DX011 (ip), vehicle: carboxymethylcellulose (CMC)) 57 % of control. The T/C is 50 % of control (dose: 3.75 mg/kg/injection, schedule: Q01DX011 (ip), vehicle: carboxymethylcellulose (CMC)); 88 % of control (dose: 3.8 mg/kg/injection, schedule: Q01DX011 (ip), vehicle: carboxymethylcellulose (CMC)); 29 % of control (dose: 5.0 mg/kg/injection, schedule: Q01DX011 (ip), vehicle: carboxymethylcellulose (CMC)); 40 % of control under setting [2]; 28 % of control (dose: 7.0 mg/kg/injection, schedule: Q01DX011 (ip), vehicle: carboxymethylcellulose (CMC)).

As for `CNS(=O)(=O)c1ncnc2nc[nH]c12`, the T/C (dose: 20.0 mg/kg/injection, schedule: Q01DX011 (ip), vehicle: carboxymethylcellulose (CMC)) was 94 % of control; the T/C (dose: 26.0 mg/kg/injection, schedule: Q01DX011 (ip), vehicle: carboxymethylcellulose (CMC)) was 86 % of control; the T/C (dose: 35.0 mg/kg/injection, schedule: Q01DX011 (ip), vehicle: carboxymethylcellulose (CMC)) is 96 % of control; the T/C (dose: 70.62 mg/kg/injection, schedule: Q01DX011 (ip), vehicle: carboxymethylcellulose (CMC)) is 43 % of control; the T/C (dose: 107.0 mg/kg/injection, schedule: Q01DX011 (ip), vehicle: carboxymethylcellulose (CMC)) is 49 % of control.

The values above are taken from PubChem BioAssay AID228 (DTP/NCI, 2004).
